The source of these data is article PMC7615676, “Short-course combination treatment for experimental chronic Chagas disease” (Science translational medicine, 2023).

One may read the IC50 as the concentration that inhibits the measured activity by half. Low readings indicate inhibition by little substance, high ones a need for much substance. For orientation: solubility means the dissolved amount per volume that the medium holds.

Each structure is given as a SMILES string. Values after ≈ are worked out from the molar mass of the structure shown. Like-named read-outs stand apart in the source and are kept apart here. Some results are limits rather than exact numbers.

The test system of data set [1] is intracellular T. cruzi amastigotes, strain Silvio X10/7 A1. The data set can be described thus: intracellular T. cruzi amastigote potency assay. It counts as cell-based. Conditions: Trypanosoma cruzi.
For the next data set, the system named is Vero host cells. The data set can be described thus: cytotoxicity against host cells in intracellular amastigote assay. In kind it is cell-based. Particulars: host cell cytotoxicity; for EC50: Chlorocebus sabaeus, Vero.
Data set [2] has as its system T. cruzi culture derived trypomastigotes, strain Silvio X10/7 A1. The data set can be described thus: trypomastigote assay. Particulars: Trypanosoma cruzi. In kind it is cell-based. As to the method:
Trypomastigote assays using strain Silvio X10/7 subclone A1 were carried out as described in ([19]). Parasite culture and potency determinations for panel of strains were performed as in ([19]). Strains used were M6241 clone 6 (DTU III), ERA clone 2 (DTU IV), PAH179 clone 5 (DTU V) and CL Brener-Luciferase (PpyRE9h-expressing T. cruzi, same strain that is used in animal model studies ([67])) (DTU VI). […] For Y strain compound exposure time was 3 days. Rate-of-kill assays were carried out as described in ([39]).

For the next data set, the target named is T. cruzi CYP51 (Trypanosoma cruzi, UniProt Q7Z1V1). The data set can be described thus: T. cruzi CYP51 biochemical assay.
Another data set has as its system HepG2 cells. The data set can be described thus: general cytotoxicity assay in HepG2 cells. It counts as cell-based. Conditions: Homo sapiens, HepG2, 48 h, CellTiter-Glo. As to the method: This assay was previously described ([36]). Briefly, actively growing HepG2 cells were removed from a T-175 TC flask using 5 ml Eagle’s MEM (containing 10 % FBS, 1 % NEAA, 1 % penicillin/ streptomycin. Carbon source is D-glucose at 1 g/l) and dispersed in the medium by repeated pipetting. Seeding density was checked to ensure that new monolayers were not more than 50 % confluent at the time of harvesting. Cell suspension was added to 500 ml of the same medium at a final density of 1.2 x 10^5 cells/ml. This cell suspension was dispensed (25 μl, 3000 cells per well) into 384-well clear-bottom plates using a Multidrop Combi dispenser. Prior to addition of the cell suspension, the screening compounds (250 nl) were predispensed into the plates with an EchoH liquid handler. Plates were incubated for 48 h at 37°C, 5% CO2. After incubation, plates equilibrated at room temperature for 30 min before proceeding to develop the luminescent signal. The signal developer, CellTiter-Glo Reagent, was allowed to equilibrate at room temperature for 30 min and added to the plates ([…]) using a Multidrop Combi dispenser. Plates were left for 10 min at room temperature for stabilization and then read using a ViewLux.
In general terms: In ATP-based viability assays light output follows the ATP content of the culture.

Data set [3] is described as follows: chromatographic LogD assay. It counts as physicochemical. Conditions: reversed phase HPLC column (Gemini NX C18), pH 7.4; read-out: Chrom logD pH 7.4. As to the method:
The chromatographic hydrophobicity index (CHI) values were measured using reversed phase HPLC column (50 mm × 2 mm, 3 μm Gemini NX C18, Phenomenex, U.K.) with fast acetonitrile gradient at starting mobile phase at pH 7.4. CHI values were derived directly from the gradient retention times by using a calibration line obtained for standard compounds. The CHI value approximates to the volume % organic concentration when the compound elutes. CHI was linearly transformed into ChromlogD by least-squares fitting of experimental CHI values to calculated log P (ClogP) values for over 20K research compounds using the following formula: ChromlogD = 0.0857CHI − 2.00. The average error of the assay is ±3 CHI units or ± 0.25 ChromlogD.

Another data set is described as follows: Property Forecast Index. In kind it is physicochemical. Conditions: number of aromatic rings + ChromLogD at pH 7.4.
The nature of data set [4]: kinetic aqueous solubility (CLND). In kind it is physicochemical. Particulars: phosphate buffered saline, aqueous buffer, kinetic from dmso stock, pH 7.4. As to the method:
The eluent is quantified by suitably calibrated flow injection CLND. This assay has a dynamic range between the lower detection limit of 1 and 500 μM, governed by the protocol’s 1:20 dilution into pH 7.4 phosphate buffer solution from nominal 10 mM DMSO stock.

The nature of a further data set: FaSSIF solubility assay. In kind it is physicochemical. Particulars: pH 6.5, 4 h. As to the method:
Solubility of test compounds in fasted simulated intestinal fluid (FaSSIF) was determined at pH 6.5 after 4 h equilibration at rt. An amount of1 mL of FaSSIF buffer (3 mM sodium taurocholate, 0.75 mM lecithin in sodium phosphate buffer at pH 6.5) was added to manually weighed 1 mg of solid compound in a 2 mL HPLC autosampler vial. The resulting suspension was shaken at 900 rpm for 4 h at rt and then transferred to a Multiscreen HTS, 96-well solubility filter plate. The residual solid was removed by filtration. The supernatant solution was quantified by HPLC−UV using single-point calibration of a known concentration of the compound in DMSO. The dynamic range of the assay was 1−1000 μg/mL.

The subject of data set [5] is wild-type T. cruzi epimastigotes. The data set can be described thus: epimastigote drug sensitivity assay, wild-type. Conditions: Trypanosoma cruzi. In kind it is cell-based. As to the method: (§1) T. cruzi epimastigotes from the Silvio strain (MHOM/BR/78/Silvio; clone X10/7A) were grown at 28°C in RTH/FBS medium ([80]).
(§2) T. cruzi epimastigote assays carried out as described previously ([43]).

Data set [6] concerns the target T. cruzi complex III (epimastigote lysates) (Trypanosoma cruzi, UniProt Q9T479). The data set can be described thus: T. cruzi complex III assay. Particulars: decylubiquinol substrate. In kind it is biochemical. As to the method:
Complex III activity within these lysates was monitored in the presence and absence of compound 3, compound 5 and related analogues from this series, using decylubiquinol as a pseudo-substrate ([43]).
Measurement of complex III activity and inhibition were performed as described previously ([43]).

For data set [7], the system named is T. cruzi epimastigotes bearing mutations in cytochrome b. The data set can be described thus: epimastigote drug sensitivity assay, cytochrome b mutant / resistant lines. Particulars: for EC50: Trypanosoma cruzi. It counts as cell-based, Trypanosoma cruzi. As to the method: as §1, §2
Compound-resistant cell lines were generated by subculturing clones of wild-type T. cruzi epimastigotes in the continuous presence of compound 3 or compound 5. Starting at sublethal concentrations, drug concentrations in 3 independent cultures were increased in a stepwise manner, usually by 2-fold. When parasites were able to survive and grow in compound concentrations equivalent to >30-fold their established EC50 value, they were cloned by limiting dilution in the presence of compound. Three independent clones were selected from each compound for further study.

On the set-up of data set [8]: method as in PMID 21073628, PMID 20932171. Conditions: patients; cited from earlier work.
Data set [9] has as its system intracellular T. cruzi Silvio X10/7 A1 in Vero cells. The data set can be described thus: washout outgrowth assay. Conditions: 8-days treatment, BNZ at 12.5× EC50 (Fig. S7). It counts as cell-based, Trypanosoma cruzi. As to the method:
Washout outgrowth assay: Vero cells were infected overnight in T600 flasks at a multiplicity of infection (MOI) 5 with T. cruzi Silvio X10/7 A1 trypomastigotes, followed by washing of the Vero monolayer to remove free trypomastigotes. 24 hours later the monolayer was trypsinised, 5.3 x 10^6 Vero cells were plated in T75 tissue culture flasks (in 20 ml MEM-Glutamax (ThermoFisher), 1% Fetal Calf Serum (FCS)), and treatment was started. For ten-day treatments, medium with compounds was replaced after the initial 5 days. For 16 day treatments the compounds were replaced every four days. For compound washout, all medium was aspirated, and flasks were washed three times with 10 ml serum-free MEM medium followed by a final aspiration and addition of 20 ml MEM-Glutamax (ThermoFisher) supplemented with 1% FCS. The cultures were then maintained until trypomastigotes were detected by light microscopy. Medium was replaced twice weekly and prior to each medium replacement microscopic evaluation was carried out (five fields per flask) for up to 60 days post washout. Robustness of the data was confirmed by profiling multiple compounds from the pyrrolopyrimidine series in a single experiment (compounds 2,3 and 4 in Fig. 2 and Fig. S17) as well as comparing results from independent experiments (compound 2 in Fig. 2, Fig. S5 and Fig. S7).

Setting [10] is: intracellular amastigotes Silvio X10/7 A1, 96 h, ± SD, min. three experiments, read-out: Amastigotes pEC50 (converted).
Where [11] appears, read: read-out: Vero pEC50 (converted).
The mark [12] stands for this setting: read-out: Trypomastigotes pEC50 (converted).

Sequence of T. cruzi CYP51 (Q7Z1V1 whole entry): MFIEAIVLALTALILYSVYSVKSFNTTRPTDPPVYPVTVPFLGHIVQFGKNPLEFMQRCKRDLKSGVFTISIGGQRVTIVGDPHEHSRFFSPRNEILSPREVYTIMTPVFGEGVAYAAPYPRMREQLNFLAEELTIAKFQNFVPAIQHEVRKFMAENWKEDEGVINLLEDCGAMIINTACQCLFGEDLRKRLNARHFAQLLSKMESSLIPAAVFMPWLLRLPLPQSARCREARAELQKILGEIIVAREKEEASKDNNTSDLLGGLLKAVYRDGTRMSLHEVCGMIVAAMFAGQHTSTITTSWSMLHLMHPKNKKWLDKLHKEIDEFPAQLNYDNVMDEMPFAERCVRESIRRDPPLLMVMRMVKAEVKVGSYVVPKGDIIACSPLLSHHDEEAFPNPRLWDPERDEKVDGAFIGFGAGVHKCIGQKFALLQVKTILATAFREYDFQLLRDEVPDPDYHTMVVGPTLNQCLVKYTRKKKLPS
Sequence of T. cruzi complex III (epimastigote lysates) (Q9T479 entry or part of it, one chain of several): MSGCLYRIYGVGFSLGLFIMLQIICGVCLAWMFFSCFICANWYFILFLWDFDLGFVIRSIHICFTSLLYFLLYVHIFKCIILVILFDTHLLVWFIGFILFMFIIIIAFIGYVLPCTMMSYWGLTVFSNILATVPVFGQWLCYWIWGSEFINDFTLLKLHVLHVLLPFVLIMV

Regarding `COc1ccccc1-c1c(C)[nH]c2nc(N)nc(C)c12` [Compound 1, 5-(2-methoxyphenyl)-4,6-dimethyl-7H-pyrrolo[2,3-d]pyrimidin-2-amine], the EC50 is 316 nM in data set [1] (setting [10]); 320 nM in data set [1] (read-out: Amastigotes EC50); more than 50000 nM in the data set with Vero host cells (read-out: Vero EC50); more than 31600 nM in the data set on Vero host cells (setting [11]); 250 nM in [2] (read-out: Trypomastigotes EC50); 251 nM in data set [2] (setting [12]). Further, in the data set on HepG2 cells (read-out: HepG2 EC50), the EC50 is more than 100000 nM. For the same compound, the “Vero pEC50” value in the data set with Vero host cells was less than 4.3. Moreover, the IC50 on T. cruzi CYP51 is more than 100000 nM. The “inhibition of recombinant T. cruzi CYP51” value at T. cruzi CYP51 (direct biochemical assay) is reported as “did not inhibit”. The chromatographic logD in data set [3] was determined as 3.2. Moreover, the PFI in the data set “Property Forecast Index” came to 6.2. The concentration in solution in data set [4] (solubility at 1 h) was 110 µg/mL (≈ 410 µM). Moreover, the “FaSSIF pH 6.5” value in the data set “FaSSIF solubility assay” is given as 456 µg/mL.
Consider `COc1cc(F)ccc1-c1c(C)n(C)c2nc(N)nc(C)c12` [Compound 5, 5-(4-Fluoro-2-methoxyphenyl)-4,6,7-trimethyl-7H-pyrrolo[2,3-d]pyrimidin-2-amine], for which the EC50 is 2.4 ± 0.1 nM in data set [5] (read-out: EC50 wild-type); 11.3 ± 0.5 nM in [5] (read-out: EC50 wild-type epimastigotes); 2 ± 0.1 nM in [5] (Table 2, wild-type epimastigotes, read-out: EC50 WT); 486 ± 18 nM in data set [7] (read-out: EC50 F222L); 1.2 ± 0.1 nM in data set [7] (read-out: EC50 G36C/L197F cytb line); 37 ± 2 nM in data set [7] (read-out: EC50 G36C/L197I cytb line). In addition, the EC50 in [7] (read-out: EC50 L197F cytb line) was 1.1 ± 0.1 nM; in [7] (read-out: EC50 L197I), 21 ± 0.5 nM; in data set [7] (read-out: EC50 compound 5-resistant clone RES1), 417 ± 11 nM; in [7] (read-out: EC50 compound 5-resistant clone RES2) it was 585 ± 30 nM; in data set [7] (read-out: EC50 compound 5-resistant clone RES3) it was 635 ± 33 nM. Besides, in data set [6], the midpoint of inhibition, the IC50, lay at 1 ± 0.2 nM. In addition, the “fold change from WT, L197I” value in data set [7] (compound 3-resistant line (L197I)) was found to be 10 fold. In data set [7] (compound 5-resistant line (F222L)), the “fold change from WT, F222L” value was determined as 224 fold. In [7] (versus wild-type), the “cross-resistance of G36C and L197I epimastigotes” value stood at 9 fold.
In the case of `CC1CS(=O)(=O)CCN1/N=C/c1ccc([N+](=O)[O-])o1` (stereo not drawn) [NFX, nifurtimox], the “discontinuation of treatment prior to completion due to adverse side-effects” value in [8] is not above 43%.
As for `CC[C@@H]([C@H](C)O)n1ncn(-c2ccc(N3CCN(c4ccc(OC[C@@H]5CO[C@@](Cn6cncn6)(c6ccc(F)cc6F)C5)cc4)CC3)cc2)c1=O` [Posaconazole, reference compound], the EC50 in [1] (setting [10]) is 2.51 nM; in [1] (read-out: Amastigotes EC50), 3 nM; in the data set on Vero host cells (read-out: Vero EC50) it was more than 50000 nM; in the data set on Vero host cells (setting [11]), more than 50100 nM; in data set [2] (read-out: Trypomastigotes EC50), more than 50000 nM; in data set [2] (setting [12]) it was more than 50100 nM. For the same compound, the EC50 in the data set with HepG2 cells (read-out: HepG2 EC50) and in the data set on HepG2 cells (read-out: HepG2 pEC50 (converted)) was more than 100000 nM in each case. In addition, the chromatographic logD in [3] was determined as 6.1. For the same compound, in the data set “Property Forecast Index”, the PFI came to 11.1. For the same compound, the solubility at 1 h in data set [4] worked out at 14 µg/mL (≈ 20 µM). Moreover, in [9], the “washout outcome in combination with BNZ” value is “failed to eliminate all parasites”.
